One compound from ChEMBL document CHEMBL5537178, “Discovery of TP0628103: A Highly Potent and Selective MMP-7 Inhibitor with Reduced OATP-Mediated Clearance Designed by Shifting Isoelectric Points” (J Med Chem, 2024) can be followed below.

A short description of series [1]: Chemical stability of the compound in pH 4 aqueous solution assessed as degradation by measuring residual rate incubated for 24 hrs at 65 degC by HPLC analysis. It counts as physicochemical. The following applies: read-out: Activity.
Series [2] in a line: Chemical stability of the compound in pH 7.4 aqueous solution assessed as degradation by measuring residual rate incubated for 24 hrs at 65 degC by HPLC analysis. Format: physicochemical. To be noted: read-out: Activity.
The target in a further series is T1, Interstitial collagenase (Homo sapiens, UniProt P03956).
T1 sequence (P03956 whole entry): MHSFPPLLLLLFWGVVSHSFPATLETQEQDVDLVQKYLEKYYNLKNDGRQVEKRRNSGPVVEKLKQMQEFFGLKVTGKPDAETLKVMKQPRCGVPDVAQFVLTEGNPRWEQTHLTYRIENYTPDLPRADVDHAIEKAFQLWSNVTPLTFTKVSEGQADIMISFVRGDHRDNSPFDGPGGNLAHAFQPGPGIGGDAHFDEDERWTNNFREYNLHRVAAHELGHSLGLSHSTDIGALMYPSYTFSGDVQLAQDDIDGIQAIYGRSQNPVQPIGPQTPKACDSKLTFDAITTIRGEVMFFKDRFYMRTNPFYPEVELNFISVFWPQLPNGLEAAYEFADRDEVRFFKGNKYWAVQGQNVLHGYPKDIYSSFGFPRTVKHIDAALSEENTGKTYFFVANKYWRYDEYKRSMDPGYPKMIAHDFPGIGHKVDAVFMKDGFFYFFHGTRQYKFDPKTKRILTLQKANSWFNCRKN
The series can be described thus: Inhibition of recombinant human MMP1 assessed as enzyme activity by measuring fluorescence using fluorogenic peptide substrate.

A further series deals with Neutrophil collagenase (Homo sapiens, UniProt P22894). The series can be described thus: Inhibition of recombinant human MMP8 assessed as enzyme activity by measuring fluorescence using fluorogenic peptide substrate.
Chain of Neutrophil collagenase (P22894 whole entry): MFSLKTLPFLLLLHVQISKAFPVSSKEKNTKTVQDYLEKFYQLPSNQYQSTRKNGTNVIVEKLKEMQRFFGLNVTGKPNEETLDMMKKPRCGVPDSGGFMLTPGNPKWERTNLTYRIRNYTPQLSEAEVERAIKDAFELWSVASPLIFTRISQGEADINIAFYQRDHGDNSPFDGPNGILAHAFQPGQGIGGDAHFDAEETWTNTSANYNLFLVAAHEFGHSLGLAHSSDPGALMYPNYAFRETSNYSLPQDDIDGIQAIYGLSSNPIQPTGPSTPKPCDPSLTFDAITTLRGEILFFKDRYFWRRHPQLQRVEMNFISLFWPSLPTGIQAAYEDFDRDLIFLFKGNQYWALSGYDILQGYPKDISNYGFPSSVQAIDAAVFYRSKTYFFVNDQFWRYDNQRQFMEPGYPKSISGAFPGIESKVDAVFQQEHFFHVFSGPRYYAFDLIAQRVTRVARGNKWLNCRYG
Series [3] concerns the target Matrix metalloproteinase-9 (Homo sapiens, UniProt P14780). The series can be described thus: Inhibition of recombinant human MMP9 assessed as enzyme activity by measuring fluorescence using fluorogenic peptide substrate.
The target in series [4] is Macrophage metalloelastase (Homo sapiens, UniProt P39900). The series can be described thus: Inhibition of recombinant human MMP12 assessed as enzyme activity by measuring fluorescence using fluorogenic peptide substrate.
Chain of Macrophage metalloelastase (P39900 whole entry): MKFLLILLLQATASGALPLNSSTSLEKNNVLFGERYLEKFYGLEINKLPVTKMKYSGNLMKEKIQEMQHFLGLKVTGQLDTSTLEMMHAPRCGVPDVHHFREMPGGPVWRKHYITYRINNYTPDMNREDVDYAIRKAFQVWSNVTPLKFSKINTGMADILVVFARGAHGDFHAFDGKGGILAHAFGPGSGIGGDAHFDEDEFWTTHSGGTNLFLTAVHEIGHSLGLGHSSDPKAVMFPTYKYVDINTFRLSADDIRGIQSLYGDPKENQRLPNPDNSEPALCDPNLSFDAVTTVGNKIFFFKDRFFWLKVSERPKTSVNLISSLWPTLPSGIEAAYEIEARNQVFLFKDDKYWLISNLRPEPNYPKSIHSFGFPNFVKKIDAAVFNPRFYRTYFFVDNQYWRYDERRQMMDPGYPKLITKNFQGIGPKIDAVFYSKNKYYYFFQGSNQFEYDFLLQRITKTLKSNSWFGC
Series [5] can be described thus: Chemical stability of the compound in pH 4 aqueous solution assessed as degradation by measuring residual rate incubated measured after 2 weeks at 65 degC by HPLC analysis. Format: physicochemical. To be noted: read-out: Stability.
A short description of series [6]: Chemical stability of the compound in pH 7.4 aqueous solution assessed as degradation by measuring residual rate incubated measured after 2 weeks at 65 degC by HPLC analysis. Format: physicochemical. To be noted: read-out: Stability.
The next series addresses T2, CYP1A2 (Homo sapiens, UniProt P05177).
T2 sequence (P05177 whole entry): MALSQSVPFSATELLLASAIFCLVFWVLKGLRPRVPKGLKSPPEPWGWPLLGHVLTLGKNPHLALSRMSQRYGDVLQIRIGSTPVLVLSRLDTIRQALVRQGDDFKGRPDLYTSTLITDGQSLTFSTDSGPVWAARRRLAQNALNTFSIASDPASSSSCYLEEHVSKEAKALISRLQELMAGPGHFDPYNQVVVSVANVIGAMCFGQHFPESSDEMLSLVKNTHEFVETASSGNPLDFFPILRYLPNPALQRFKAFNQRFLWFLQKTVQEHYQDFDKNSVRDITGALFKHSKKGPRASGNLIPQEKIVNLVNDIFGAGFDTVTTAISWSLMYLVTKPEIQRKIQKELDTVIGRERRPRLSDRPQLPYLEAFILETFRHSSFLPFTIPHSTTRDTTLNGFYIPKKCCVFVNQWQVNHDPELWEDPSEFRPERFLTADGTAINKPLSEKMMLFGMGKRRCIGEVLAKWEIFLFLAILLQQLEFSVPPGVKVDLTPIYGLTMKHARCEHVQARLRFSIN
The series can be described thus: Inhibition of CYP1A2 in human liver microsomes at 10 uM by LC-MS/MS analysis relative to control. Format: ADME, Microsome. A general note: Liver microsomes are vesicles of endoplasmic reticulum, rich in cytochrome P450 enzymes.

A further series deals with T3, CYP2B6 (Homo sapiens, UniProt P20813).
T3 sequence (P20813 whole entry): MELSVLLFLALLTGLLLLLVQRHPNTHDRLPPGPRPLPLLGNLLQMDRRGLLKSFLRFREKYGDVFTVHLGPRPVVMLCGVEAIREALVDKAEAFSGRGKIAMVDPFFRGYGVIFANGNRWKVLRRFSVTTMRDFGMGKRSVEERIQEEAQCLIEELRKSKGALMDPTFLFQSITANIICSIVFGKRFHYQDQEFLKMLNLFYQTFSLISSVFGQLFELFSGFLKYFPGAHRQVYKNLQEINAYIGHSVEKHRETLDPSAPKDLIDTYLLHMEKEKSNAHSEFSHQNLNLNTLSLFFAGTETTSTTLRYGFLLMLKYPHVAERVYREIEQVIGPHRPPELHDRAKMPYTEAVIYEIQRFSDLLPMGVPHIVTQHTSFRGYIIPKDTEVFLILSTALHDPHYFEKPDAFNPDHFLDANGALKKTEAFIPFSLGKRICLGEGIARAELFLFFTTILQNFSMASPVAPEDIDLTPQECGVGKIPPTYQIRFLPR
The series can be described thus: Inhibition of CYP2B6 in human liver microsomes at 10 uM by LC-MS/MS analysis relative to control. Format: ADME, Microsome.

The next series concerns the target CYP2D6 (Homo sapiens, UniProt P10635). The series can be described thus: Inhibition of CYP2D6 in human liver microsomes at 10 uM by LC-MS/MS analysis relative to control. Format: ADME, Microsome.
The target in the next series is CYP2C9 (Homo sapiens, UniProt P11712). The series can be described thus: Time dependent inhibition of CYP2C9 in human liver microsomes at 10 uM by LC-MS/MS analysis relative to control. It counts as ADME, Microsome. To be noted: read-out: TDI.
Chain of CYP2C9 (P11712 whole entry): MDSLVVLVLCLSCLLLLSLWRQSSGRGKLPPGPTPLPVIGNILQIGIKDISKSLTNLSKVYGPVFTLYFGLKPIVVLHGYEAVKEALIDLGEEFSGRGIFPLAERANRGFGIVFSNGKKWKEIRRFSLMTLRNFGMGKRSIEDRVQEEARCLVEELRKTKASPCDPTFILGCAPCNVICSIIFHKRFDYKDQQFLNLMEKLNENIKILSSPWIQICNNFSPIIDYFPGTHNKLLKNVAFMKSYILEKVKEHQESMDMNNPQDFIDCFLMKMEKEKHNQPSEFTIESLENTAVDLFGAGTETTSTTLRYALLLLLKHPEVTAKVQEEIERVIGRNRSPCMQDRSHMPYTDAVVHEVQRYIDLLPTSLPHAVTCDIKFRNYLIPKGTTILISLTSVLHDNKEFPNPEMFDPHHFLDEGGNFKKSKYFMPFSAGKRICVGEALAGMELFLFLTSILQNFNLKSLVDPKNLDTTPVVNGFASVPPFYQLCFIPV
For series [7], the target named is T4, CYP3A (Homo sapiens, UniProt P08684+P20815+P24462+Q9HB55). The series can be described thus: Time dependent inhibition of CYP3A in human liver microsomes using midazolam as substrate at 10 uM by LC-MS/MS analysis relative to control. Format: ADME, Microsome. The following applies: probe midazolam, read-out: TDI.
Series [8] concerns the target T4, CYP3A. The series can be described thus: Time dependent inhibition of CYP3A in human liver microsomes using testosterone as substrate at 10 uM by LC-MS/MS analysis relative to control. It counts as ADME, Microsome. The following applies: probe testosterone, read-out: TDI.
Series [9] in a line: Fraction unbound in rat. It counts as ADME.
Series [10] can be described thus: Fraction unbound in monkey. To be noted: rhesus monkey. It counts as ADME, Macaca mulatta.
The nature of series [11]: Volume of distribution at steady state in Sprague-Dawley rat at 0.5 mg/kg, iv. Format: ADME, organism-based. To be noted: in vivo, read-out: Vdss.
Series [12] in a line: Volume of distribution at steady state in cynomolgus monkey at 1 mg/kg, iv. It counts as ADME, organism-based, Macaca fascicularis. To be noted: in vivo, read-out: Vdss.
In a further series the test system is HepG2. The series can be described thus: Cytotoxicity against human HepG2 cells at 10 uM. The following applies: hepg2, 10 µM. Format: toxicity, cell-based.
The subject of the next series is Mus musculus. The series can be described thus: Antifibrotic effect in UUO surgery-induced renal fibrosis C57BL/6J mouse model assessed as reduction in renal collagen at 0.3 to 3 mg/kg/day, sc administered with mini osmotic pump measured after 7 days. Format: functional, organism-based. The following applies: dose 0.3-3 mg/kg/day, time 7.0 day.
A short description of series [13]: Plasma unbound drug concentration at steady state in UUO surgery-induced renal fibrosis C57BL/6J mouse model at 0.1 mg/kg/day, sc administered with mini osmotic pump measured after 3 days. Format: ADME, organism-based. To be noted: in vivo, 72 h, time 3 day.
Series [14] in a line: Plasma unbound drug concentration at steady state in UUO surgery-induced renal fibrosis C57BL/6J mouse model at 3 mg/kg/day, sc administered with mini osmotic pump measured after 3 days. It counts as ADME, organism-based. To be noted: in vivo, 72 h, time 3 day.

The source made the active and inactive calls. The rule behind the calls is not given here.

Chain of CYP2D6 (P10635 whole entry): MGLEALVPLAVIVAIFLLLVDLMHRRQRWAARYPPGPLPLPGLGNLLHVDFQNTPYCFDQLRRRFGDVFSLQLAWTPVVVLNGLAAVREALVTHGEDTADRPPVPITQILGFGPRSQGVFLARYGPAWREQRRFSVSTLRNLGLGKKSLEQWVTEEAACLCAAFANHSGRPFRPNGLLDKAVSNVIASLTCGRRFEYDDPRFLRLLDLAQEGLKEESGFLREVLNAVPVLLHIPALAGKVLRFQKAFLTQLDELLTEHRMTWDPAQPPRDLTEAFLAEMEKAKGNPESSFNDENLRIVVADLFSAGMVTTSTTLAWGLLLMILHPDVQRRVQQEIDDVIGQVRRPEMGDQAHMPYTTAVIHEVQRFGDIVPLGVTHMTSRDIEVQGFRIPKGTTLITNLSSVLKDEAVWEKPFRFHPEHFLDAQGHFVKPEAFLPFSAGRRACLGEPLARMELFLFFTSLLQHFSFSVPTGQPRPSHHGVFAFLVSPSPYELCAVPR
Chain of Matrix metalloproteinase-9 (P14780 whole entry): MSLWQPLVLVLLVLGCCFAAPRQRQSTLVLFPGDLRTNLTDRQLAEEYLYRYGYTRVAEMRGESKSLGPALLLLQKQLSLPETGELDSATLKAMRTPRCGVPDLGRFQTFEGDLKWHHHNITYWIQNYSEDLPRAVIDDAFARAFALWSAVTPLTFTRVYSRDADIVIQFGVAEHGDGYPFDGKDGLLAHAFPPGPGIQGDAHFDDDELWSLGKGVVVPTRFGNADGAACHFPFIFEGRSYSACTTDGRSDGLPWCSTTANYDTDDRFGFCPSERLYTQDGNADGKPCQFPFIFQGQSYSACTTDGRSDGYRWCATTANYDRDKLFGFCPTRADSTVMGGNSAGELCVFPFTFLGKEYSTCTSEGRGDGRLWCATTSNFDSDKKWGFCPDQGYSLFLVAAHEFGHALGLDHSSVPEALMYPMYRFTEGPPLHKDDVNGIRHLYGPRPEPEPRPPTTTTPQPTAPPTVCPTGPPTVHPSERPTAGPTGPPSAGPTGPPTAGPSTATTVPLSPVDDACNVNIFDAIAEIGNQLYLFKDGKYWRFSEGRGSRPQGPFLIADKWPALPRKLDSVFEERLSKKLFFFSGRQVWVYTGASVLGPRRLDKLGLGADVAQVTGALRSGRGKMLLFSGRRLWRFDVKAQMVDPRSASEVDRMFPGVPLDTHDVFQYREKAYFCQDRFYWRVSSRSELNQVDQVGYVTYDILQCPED

As usually defined, the IC50 is the concentration needed to halve the response being measured. For orientation: fraction unbound means free concentration divided by total concentration. As for `CC(C)(C)[C@H](NC(=O)[C@H](Cc1ccncc1)NC(=O)CNC(=O)CC[C@H](NS(=O)(=O)c1ccc(Cl)c(C(F)(F)F)c1)C(=O)O)C(=O)Nc1ccc(C(=O)N2CCC(C(=O)N[C@H](CCCCN)C(=O)N3CC[C@H](N)C3)CC2)cc1`, the remaining at 24 h in [1] was found to be 101%; in [2] it was 97.9%. Besides, the IC50 is above 10 µM on Interstitial collagenase, above 10 µM at Neutrophil collagenase, above 10 µM in series [3] and 0.73 µM in series [4]. Further, the remaining at 336 h in series [5] was found to be 98.2%; in series [6], 99.1%. Moreover, the inhibition at 10 µM on CYP1A2 is 3.2%; at CYP2B6 it was -6.6%; at CYP2D6, 6.4%; at CYP2C9, -11.5%; at CYP3A [7], -5.2%; at CYP3A [8], -13.9%. The results for the fraction unbound in series [9] and in series [10] were 0.178 and 0.2, respectively. Also, the figures for the Vd in [11] and in series [12] were 0.179 L/kg and 0.145 L/kg, respectively. The Activity entry in the series on HepG2 is given as “Non-Toxic”. Further, in the series with Mus musculus, the result was Active. Also, the entries for the “Cp(f)” value in [13] and in series [14] were 1.32 nM and 31 nM, respectively.
